# Laboratory results from the supplement of paper PMC10307832.
# Compound: C1CC(C2=C(C1)C3=C(N2)C=CC(=C3)Cl)C(=O)N [Selisistat]
# Test: relative viability (nuclei count vs DMSO), 5 days (fraction); higher = more cells survive
# Conditions: 0.4 µM
# Procedure, shortened: (§1)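 Acceptance criteria were a control CV below 25% and at least one doubling per plate. Lung cancer cell lines in 1536-well plates got five library-drug doses (not always all listed) √10 apart by pinning and were left 5 days with no medium change. Viability divides treated-well nuclei by vehicle-well nuclei and is the median across plates. Nuclei were counted by MetaXpress from 4× Hoechst images.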
row,Cell Line,relative viability
1,Calu-6,1.03
2,HCC-366,0.997
3,NCI-H1666,1.06
4,NCI-H596,1.08
5,LK-2,0.963
6,NCI-H2087,1.18
7,SK-MES-1,1.09
8,H3255,0.984
9,COR-L23,1.05
10,COR-L 105,0.904
11,IA-LM,0.945
12,LOU-NH91,1.05
13,NCI-H2170,1.02
14,NCI-H2405,1.06
15,HOP-62,0.997
16,HCC-44,1.01

row,Cell Line,relative viability
1,A549,1.05
2,LU99A,1.09
3,BEN,1.01
4,HARA,0.955
5,HCC-78,0.954
6,NCI-H322M,0.98
7,LCLC-97TM1,0.941
8,NCI-H2009,1.01
9,A-427,1.03
10,NCI-H661,1.02
11,NCI-H1734,1.02
12,NCI-H460,0.986
13,NCI-H2347,1.02
14,SK-LU-1,1.08
15,NCI-H1395,1.02

# Same assay, conditions: 1.265 µM
row,Cell Line,relative viability
1,NCI-H2085,0.991
2,Calu-6,0.965
3,HCC-366,0.957
4,NCI-H1666,0.933
5,NCI-H596,0.994
6,LK-2,0.891
7,NCI-H2087,1.06
8,SK-MES-1,0.986
9,H3255,0.943
10,COR-L23,1.06
11,COR-L 105,0.895
12,IA-LM,0.959
13,LOU-NH91,0.938
14,NCI-H2170,0.978
15,NCI-H2405,0.88
16,HOP-62,0.987

row,Cell Line,relative viability
1,HCC-44,0.738
2,A549,0.901
3,LU99A,0.992
4,BEN,0.967
5,HARA,0.938
6,HCC-78,1.08
7,NCI-H322M,1.01
8,LCLC-97TM1,0.933
9,NCI-H2009,1.03
10,A-427,0.984
11,NCI-H661,1
12,NCI-H1734,0.942
13,NCI-H460,0.961
14,NCI-H2347,1.09
15,SK-LU-1,1.07
16,NCI-H1395,0.883

# Same assay, conditions: 4 µM
row,Cell Line,relative viability
1,NCI-H2085,0.858
2,Calu-6,0.99
3,HCC-366,0.894
4,NCI-H1666,0.877
5,NCI-H596,0.849
6,LK-2,1
7,SK-MES-1,0.955
8,H3255,0.978
9,COR-L23,1.08
10,COR-L 105,0.675
11,IA-LM,0.918
12,LOU-NH91,0.884
13,NCI-H2170,0.956
14,NCI-H2405,0.657
15,HOP-62,0.861
16,HCC-44,1.08
17,A549,0.952
18,LU99A,0.987
19,BEN,0.738
20,HARA,0.749
21,HCC-78,0.7
22,NCI-H2009,0.772
23,A-427,0.845
24,NCI-H661,1
25,NCI-H1734,0.921
26,NCI-H460,0.933
27,NCI-H2347,0.716
28,SK-LU-1,1.08
29,NCI-H1395,0.701

# Same assay, conditions: 12.65 µM
row,Cell Line,relative viability
1,NCI-H2085,0.965
2,Calu-6,0.976
3,HCC-366,1.01
4,NCI-H1666,1.04
5,NCI-H596,1.03
6,LK-2,0.913
7,NCI-H2087,0.89
8,SK-MES-1,0.93
9,H3255,0.948
10,COR-L23,0.908
11,COR-L 105,0.855
12,IA-LM,0.9
13,LOU-NH91,0.966
14,NCI-H2170,1.03
15,NCI-H2405,0.984
16,HOP-62,0.928

row,Cell Line,relative viability
1,HCC-44,0.982
2,A549,0.898
3,LU99A,0.874
4,BEN,0.878
5,HARA,0.964
6,HCC-78,0.875
7,NCI-H322M,0.994
8,LCLC-97TM1,0.962
9,NCI-H2009,0.933
10,A-427,0.971
11,NCI-H661,0.901
12,NCI-H1734,1.08
13,NCI-H460,0.968
14,NCI-H2347,0.993
15,SK-LU-1,1.08
16,NCI-H1395,0.863

# Same assay, conditions: 40 µM
row,Cell Line,relative viability
1,NCI-H2085,1.05
2,Calu-6,1
3,HCC-366,1
4,NCI-H1666,0.966
5,NCI-H596,0.983
6,LK-2,1.02
7,NCI-H2087,0.97
8,SK-MES-1,0.976
9,H3255,1.03
10,COR-L23,1.01
11,COR-L 105,0.877
12,IA-LM,1.01
13,LOU-NH91,0.973
14,NCI-H2170,1.1
15,NCI-H2405,0.992
16,HOP-62,1.07

row,Cell Line,relative viability
1,HCC-44,1.06
2,A549,0.982
3,LU99A,1.01
4,BEN,0.9
5,HARA,1.07
6,HCC-78,0.939
7,NCI-H322M,1.01
8,LCLC-97TM1,1.09
9,NCI-H2009,0.975
10,A-427,0.944
11,NCI-H661,0.906
12,NCI-H1734,1.03
13,NCI-H460,1.03
14,NCI-H2347,0.99
15,SK-LU-1,1.13
16,NCI-H1395,0.9

# Compound: c1ccc2c(CCNc3ccc(Nc4ccncc4)cc3)c[nH]c2c1 [Serdemetan]
# Test: as above
# Conditions: 0.04 µM
# Procedure, shortened: as §1
row,Cell Line,relative viability
1,NCI-H2085,0.964
2,Calu-6,1
